Measurements: ChEMBL document CHEMBL1145992, “N6-substituted D-4'-thioadenosine-5'-methyluronamides: potent and selective agonists at the human A3 adenosine receptor” (J Med Chem, 2003)

Legend:
Adenosine receptor A2a [1] = biological target: Adenosine receptor A2a (Homo sapiens, UniProt P29274); experiment: Binding affinity for human adenosine A2A receptor in CHO cells using [3H]CGS-21680; type: cell-based
Adenosine receptor A2a [2] = biological target: Adenosine receptor A2a (Rattus norvegicus, UniProt P30543); experiment: Binding affinity for rat adenosine A2A receptor in rat brain homogenates using [3H]CGS-21680
Adenosine receptor A2a (Rattus norvegicus, UniProt P30543), sequence (P30543 whole entry): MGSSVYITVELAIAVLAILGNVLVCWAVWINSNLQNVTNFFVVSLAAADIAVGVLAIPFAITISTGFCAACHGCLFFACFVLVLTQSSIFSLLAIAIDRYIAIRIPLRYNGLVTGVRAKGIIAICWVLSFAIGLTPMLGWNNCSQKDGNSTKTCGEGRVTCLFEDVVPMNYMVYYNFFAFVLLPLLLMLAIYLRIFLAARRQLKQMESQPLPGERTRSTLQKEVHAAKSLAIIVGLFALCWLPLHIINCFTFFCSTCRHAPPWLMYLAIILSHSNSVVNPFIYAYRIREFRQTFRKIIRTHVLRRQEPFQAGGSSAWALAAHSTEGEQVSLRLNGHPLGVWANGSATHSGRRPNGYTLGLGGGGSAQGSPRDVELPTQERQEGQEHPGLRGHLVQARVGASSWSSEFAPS

Adenosine receptor A1 = biological target: T1, Adenosine receptor A1 (Rattus norvegicus, UniProt P25099); experiment: Binding affinity for rat Adenosine A1 receptor in rat brain homogenates using [3H]N6-(R)-phenylisopropyladenosine
T1 sequence (P25099 whole entry): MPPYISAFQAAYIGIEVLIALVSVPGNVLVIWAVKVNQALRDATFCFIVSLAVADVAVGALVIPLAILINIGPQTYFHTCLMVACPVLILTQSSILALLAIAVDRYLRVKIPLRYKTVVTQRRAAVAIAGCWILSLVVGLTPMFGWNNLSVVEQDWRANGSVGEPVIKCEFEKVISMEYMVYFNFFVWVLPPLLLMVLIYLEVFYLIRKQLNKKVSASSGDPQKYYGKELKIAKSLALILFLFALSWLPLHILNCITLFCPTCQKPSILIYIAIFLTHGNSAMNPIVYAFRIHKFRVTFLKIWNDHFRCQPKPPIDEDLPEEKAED

Adenosine receptor A3 = biological target: T2, Adenosine receptor A3 (Homo sapiens, UniProt P0DMS8); experiment: Inhibitory concentration against human Adenosine A3 receptor mediated inhibition of cyclic AMP in transfected CHO cells; type: functional, cell-based
T2 sequence (P0DMS8 whole entry): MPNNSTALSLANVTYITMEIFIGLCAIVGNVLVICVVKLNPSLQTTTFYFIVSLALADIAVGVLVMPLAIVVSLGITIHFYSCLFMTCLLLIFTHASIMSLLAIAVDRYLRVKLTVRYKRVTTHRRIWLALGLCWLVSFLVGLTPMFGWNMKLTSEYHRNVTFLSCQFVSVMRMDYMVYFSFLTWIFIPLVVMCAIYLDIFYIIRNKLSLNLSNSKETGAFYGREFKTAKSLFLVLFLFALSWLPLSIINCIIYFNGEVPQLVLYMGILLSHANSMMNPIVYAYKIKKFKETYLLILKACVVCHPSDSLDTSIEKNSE

[3] = biological target: Adenosine receptor A2a (Rattus norvegicus) (UniProt P30543); experiment: Percent displacement of [3H]-CGS-21,680 from rat adenosine A2A receptor in rat brain homogenates at 1 uM
Adenosine receptor A2a (Rattus norvegicus), sequence (P30543 whole entry): as the sequence (P30543 whole entry) above

Adenosine receptor A2a (Homo sapiens, UniProt P29274), sequence (P29274 whole entry): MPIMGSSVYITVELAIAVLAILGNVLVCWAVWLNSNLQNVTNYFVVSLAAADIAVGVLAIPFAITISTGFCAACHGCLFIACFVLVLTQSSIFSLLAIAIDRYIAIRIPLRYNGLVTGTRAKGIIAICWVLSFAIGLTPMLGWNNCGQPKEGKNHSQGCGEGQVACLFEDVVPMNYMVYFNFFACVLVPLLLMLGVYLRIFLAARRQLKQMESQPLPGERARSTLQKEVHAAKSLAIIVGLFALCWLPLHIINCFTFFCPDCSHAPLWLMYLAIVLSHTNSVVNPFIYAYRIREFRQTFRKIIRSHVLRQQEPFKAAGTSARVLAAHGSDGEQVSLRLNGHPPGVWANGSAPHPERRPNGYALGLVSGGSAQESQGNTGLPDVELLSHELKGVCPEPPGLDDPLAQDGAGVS

**Q.** CNC(=O)[C@H]1S[C@@H](n2cnc3c(NCc4cccc(I)c4)nc(Cl)nc32)[C@H](O)[C@@H]1O was tested. Which Ki (Adenosine receptor A2a [1]) did it give?
**A.** Its Ki is 223 nM.

**Q.** What about the Ki (Adenosine receptor A2a [2]) of the same compound?
**A.** The Ki was 348 nM.

**Q.** And the Ki (Adenosine receptor A1)?
**A.** The Ki was 140 nM.

**Q.** With CNC(=O)[C@H]1S[C@@H](n2cnc3c(N)nc(Cl)nc32)[C@H](O)[C@@H]1O as the compound, how does the IC50 (Adenosine receptor A3) read?
**A.** The IC50 was 1 nM.

**Q.** What about the Displacement [3] of the same compound?
**A.** Its Displacement is < 10%.
